# Results from PubChem BioAssay (NCI).
#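 All cell lines were grown in 96-well plates and treated with compound for 48 hours. Abbreviation: GI50, concentration required for 50% inhibition of growth. Definition used: TGI = concentration required for complete inhibition of growth.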
# Legend:
# Test in all cases: NCI anticancer screen, dose series, 48 h
# PC-3 prostate = tested on: PC-3 prostate
# HS 578T breast = tested on: HS 578T breast
# SF-539 CNS = tested on: SF-539 CNS
# SK-MEL-5 melanoma = tested on: SK-MEL-5 melanoma
# IGROV1 ovarian = tested on: IGROV1 ovarian
# MOLT-4 leukemia = tested on: MOLT-4 leukemia
# CAKI-1 renal = tested on: CAKI-1 renal
# 786-0 renal = tested on: 786-0 renal
# SW-620 colon = tested on: SW-620 colon
# SNB-19 CNS = tested on: SNB-19 CNS
# BT-549 breast = tested on: BT-549 breast
# OVCAR-3 ovarian = tested on: OVCAR-3 ovarian
# M14 melanoma = tested on: M14 melanoma
# NCI-H23 lung = tested on: NCI-H23 lung
# SN12C renal = tested on: SN12C renal
# NCI/ADR-RES ovarian = tested on: NCI/ADR-RES ovarian
# SNB-75 CNS = tested on: SNB-75 CNS
# RPMI-8226 leukemia = tested on: RPMI-8226 leukemia
# NCI-H460 lung = tested on: NCI-H460 lung
# ACHN renal = tested on: ACHN renal
# KM12 colon = tested on: KM12 colon
# OVCAR-5 ovarian = tested on: OVCAR-5 ovarian
# DU-145 prostate = tested on: DU-145 prostate
# NCI-H226 lung = tested on: NCI-H226 lung
# SK-MEL-2 melanoma = tested on: SK-MEL-2 melanoma
compound,measurement,setting,value
O=C1C(=O)/C(=C/c2ccccc2)CCCCCC/C1=C/c1ccccc1,GI50,PC-3 prostate,3.19 µM
same,TGI,PC-3 prostate,17.1 µM
same,GI50,HS 578T breast,8.06 µM
same,TGI,HS 578T breast,> 100 µM
same,GI50,SF-539 CNS,1.98 µM
same,TGI,SF-539 CNS,3.95 µM
same,GI50,SK-MEL-5 melanoma,3.25 µM
same,TGI,SK-MEL-5 melanoma,12.1 µM
same,GI50,IGROV1 ovarian,2.93 µM
same,TGI,IGROV1 ovarian,8.7 µM
same,GI50,MOLT-4 leukemia,3.17 µM
same,TGI,MOLT-4 leukemia,10.7 µM
same,GI50,CAKI-1 renal,3.11 µM
same,TGI,CAKI-1 renal,18.6 µM
same,GI50,786-0 renal,1.82 µM
same,TGI,786-0 renal,3.33 µM
same,GI50,SW-620 colon,3.21 µM
same,TGI,SW-620 colon,11.6 µM
same,GI50,SNB-19 CNS,5.3 µM
same,TGI,SNB-19 CNS,20.2 µM
same,GI50,BT-549 breast,2.33 µM
same,TGI,BT-549 breast,5 µM
same,GI50,OVCAR-3 ovarian,1.92 µM
same,TGI,OVCAR-3 ovarian,3.63 µM
same,GI50,M14 melanoma,2.29 µM
same,TGI,M14 melanoma,5.31 µM
same,GI50,NCI-H23 lung,3.38 µM
same,TGI,NCI-H23 lung,13.7 µM
same,GI50,SN12C renal,2.35 µM
same,TGI,SN12C renal,5.58 µM
same,GI50,NCI/ADR-RES ovarian,4.78 µM
same,TGI,NCI/ADR-RES ovarian,> 100 µM
same,GI50,SNB-75 CNS,2.86 µM
same,TGI,SNB-75 CNS,17.6 µM
same,GI50,RPMI-8226 leukemia,1.9 µM
same,TGI,RPMI-8226 leukemia,5.96 µM
same,GI50,NCI-H460 lung,2.43 µM
same,TGI,NCI-H460 lung,6.09 µM
same,GI50,ACHN renal,2.57 µM
same,TGI,ACHN renal,6.5 µM
same,GI50,KM12 colon,2.7 µM
same,TGI,KM12 colon,6.4 µM
same,GI50,OVCAR-5 ovarian,2.68 µM
same,TGI,OVCAR-5 ovarian,7.93 µM
same,GI50,DU-145 prostate,3.73 µM
same,TGI,DU-145 prostate,14 µM
same,GI50,NCI-H226 lung,1.76 µM
same,TGI,NCI-H226 lung,3.54 µM
same,GI50,SK-MEL-2 melanoma,16.6 µM
same,TGI,SK-MEL-2 melanoma,34.4 µM
